Ratio, IC50 and CC50 data for eleven compounds are collected here from ChEMBL document CHEMBL1143522, “Antimalarial benzo[c]phenanthridines” (Bioorg Med Chem Lett, 2005).

The subject of data set [1] is Plasmodium falciparum. The data set can be described thus: […] against Plasmodium falciparum strains K39 and V1/S. The data set is classed as functional.
Data set [2] has as its system Plasmodium falciparum. The data set can be described thus: In vitro inhibitory concentration against chloroquine-sensitive Plasmodium falciparum K39. The class given is functional, organism-based.
Data set [3] concerns Plasmodium falciparum. The data set can be described thus: In vitro inhibitory concentration against chloroquine-resistant Plasmodium falciparum V1/S. The class given is functional, organism-based.
Data set [4] in a line: In vitro toxicity against B82 fibroblast cells. The conditions noted are these: mouse, read-out: LD50 (the source's name). The class given is cell-based.
Data set [5] concerns Plasmodium falciparum. The data set can be described thus: In vitro inhibition against chloroquine-sensitive Plasmodium falciparum K39; Range 0.1-0.4 uM. The class given is functional, organism-based.
For data set [6], the system named is Plasmodium falciparum. The experiment in a line: In vitro inhibition against chloroquine-resistant Plasmodium falciparum V1/S; Range 0.1-0.4 uM. The data set is classed as functional, organism-based.

As a reminder, the IC50 is the point on the concentration scale where inhibition reaches its midpoint. Low readings indicate higher potency, high ones lower potency. For the compound `COc1cc2c(ccc3c4cc(OC)c(OC)cc4c[n+](C)c23)cc1O.CS(=O)(=O)[O-]`, the Ratio in data set [1] is 0.8. In addition, the IC50 in data set [2] was found to be 2300 nM; in data set [3], 1800 nM.

For `CCOc1cc2ccc3c4cc(OC)c(OC)cc4c[n+](C)c3c2cc1OC.CS(=O)(=O)[O-]`, the Ratio in data set [1] came out at 0.9. In addition, the IC50 in data set [2] came to 800 nM; in data set [3] it was 740 nM.

In the case of `COc1cc2c[n+](C)c3c4cc(OC)c(OC)cc4c4occc4c3c2cc1OC.CS(=O)(=O)[O-]`, the Ratio in data set [1] is on record as 11.3. The IC50 in data set [2] amounted to 9 nM; in data set [3], 110 nM.

Take `CCOc1cc2c3cc(OC)c(OC)cc3c[n+](C)c2c2cc(OC)c(O)cc12.CS(=O)(=O)[O-]`: in data set [1], the Ratio was found to be 1. Moreover, the IC50 in data set [2] and in data set [3] was 120 nM in each case.

In the case of `CC[n+]1cc2cc(OC)c(OC)cc2c2ccc3cc(OC)c(OC)cc3c21.[I-]`, the Ratio in data set [1] was found to be 1.3. The IC50 turned out to be 90 nM in data set [2] and 120 nM in data set [3].

Consider `CCOc1cc2c3cc(OC)c(OC)cc3c[n+](CC)c2c2cc(OC)c(OC)cc12.[I-]`, for which the Ratio in data set [1] was 1.4. In addition, the CC50 in data set [4] is 3.2 µg/mL. In addition, the IC50 in data set [2] was 40 nM; in data set [3], 50 nM.

On to `COc1cc2c[n+](C)c3c4cc(OC)c(OC)cc4ccc3c2cc1OC.CS(=O)(=O)[O-]`, for which the Ratio in data set [1] worked out at 4.2. Besides, the IC50 in data set [2] turned out to be 70 nM; in data set [3], 300 nM.

`COc1cc2c[n+](C)c3c4cc(OC)c(OC)cc4c(OCC4OCC(Br)([N+](=O)[O-])CO4)cc3c2cc1OC.CS(=O)(=O)[O-]` (stereo not drawn): in data set [1], the Ratio came to 1.9. Further, the IC50 was found to be 1000 nM in data set [2] and 1840 nM in data set [3].

Regarding `COc1cc2ccc3c4cc(OC)c(SC)cc4c[n+](C)c3c2cc1OC.CS(=O)(=O)[O-]`, the Ratio in data set [1] was 4.7. The IC50 in data set [2] was 190 nM; in data set [3] it was 900 nM.

For the compound `CCOc1cc2c3cc(OC)c(OC)cc3c[n+](C)c2c2cc(OC)c(OC)cc12.CS(=O)(=O)[O-]`, the Ratio in data set [1] is recorded as 1. The IC50 in data set [2] and in data set [3] was 260 nM in each case.

Consider `COc1cc2c[n+](C)c3c4cc5c(cc4ccc3c2cc1OC)OCO5` [NITIDINE CHLORIDE], for which the IC50 in data set [5] and in data set [6] was 400 nM each time.
